Values quoted from earlier work as cited in US8362077B2, “Chemical compositions for skin care emulsions and heavy duty hand cleansers” (Pibed Limited, priority 2008, dated 2013).
Where two headings read alike, the source gives them in different places.

Key:
Lactobacillus fermentum = details: flow cytometry
Staphylococcus aureus = details: low concentrations (0.5 to 2 mM)
Microsporum gypseum [1] = details: M. gypseum
Microsporum gypseum [2] = details: 10% in Vaseline petroleum jelly, topical, daily for 3 weeks

Row | SMILES | Intracellular accumulation of ethidium bromide by live cells (Lactobacillus fermentum) | Susceptibility to ciprofloxacin, clindamycin, erythromycin, gentamicin, tetracycline and vancomycin (Staphylococcus aureus) | MIC (Microsporum gypseum [1]; positive control) | MIC (Microsporum gypseum [1]) | Histopathologic examination of skin tissues (Microsporum gypseum [2]) | Skin lesion scoring (Microsporum gypseum [2]) | Sensitization to polymyxin B (Escherichia coli) | Hair culture test (Microsporum gypseum [2])
1 | CC(C)=CCC/C(C)=C/CC1CCCC1=O (centres unmarked) [apritone] | promoted the intracellular accumulation | enhanced the susceptibility | – | – | – | – | – | –
2 | CC(C)=CCC[C@](C)(O)C1CC=C(C)CC1 (some centres unmarked) [bisabolol] | promoted the intracellular accumulation | enhanced the susceptibility | – | – | – | – | – | –
3 | Clc1ccc(COC(Cn2ccnc2)c2ccc(Cl)cc2Cl)cc1 (centres unmarked) [econazole] | – | – | 4 to 16 µg/mL | – | – | – | – | –
4 | C=CCc1ccc(O)c(OC)c1 [eugenol] | – | – | – | 0.01-0.03% | lower degree of hyperkeratosis and inflammatory cell infiltration than the positive control | clinically effective at improving the lesion during the first week of application | – | –
5 | CC(C)=CCCC(C)=CCCC(C)=CCO [farnesol] | promoted the intracellular accumulation | – | – | – | – | – | sensitized Escherichia coli to polymyxin B | –
6 | C=CC(C)(O)CCC=C(C)CCC=C(C)C (centres unmarked) [nerolidol, 3,7,11-trimethyl-1,6,10-dodecatrien-3-ol] | promoted the intracellular accumulation | enhanced the susceptibility | – | 0.5-2% | lower degree of hyperkeratosis and inflammatory cell infiltration than the positive control | clinically effective at improving the lesion during the first week of application | sensitized Escherichia coli to polymyxin B | improved the skin lesions
